Assay results: patent US9969742B2, “Imidazotriazinone compounds” (Ironwood Pharmaceuticals, Inc., priority 2012, dated 2018)
Where two headings read alike, the source gives them in different places.

Key:
Format in all cases: biochemical
PDE9A2 = target: T1, PDE9A2 (Homo sapiens, UniProt O76083); assay: Phosphodiesterase enzyme screening assay, PDE9A2
T1 construct: purchased Reaction Biology Corporation, Malvern, Pa
How it was run: (§1)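 Reaction started by adding substrate (4.0 μM cGMP) to recombinant human enzyme in HEPES pH 7.5 buffer with MgCl2, DTT and Brij; 1 h at room temperature; quenched with EDTA-containing stop buffer; product and substrate resolved electrophoretically and quantified by fluorescence relative to uninhibited controls.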

PDE1B = target: T2, PDE1B (Homo sapiens, UniProt Q01064); assay: Phosphodiesterase enzyme screening assay, PDE1B
T2 construct: purchased Reaction Biology Corporation, Malvern, Pa
T2 sequence (Q01064 whole entry): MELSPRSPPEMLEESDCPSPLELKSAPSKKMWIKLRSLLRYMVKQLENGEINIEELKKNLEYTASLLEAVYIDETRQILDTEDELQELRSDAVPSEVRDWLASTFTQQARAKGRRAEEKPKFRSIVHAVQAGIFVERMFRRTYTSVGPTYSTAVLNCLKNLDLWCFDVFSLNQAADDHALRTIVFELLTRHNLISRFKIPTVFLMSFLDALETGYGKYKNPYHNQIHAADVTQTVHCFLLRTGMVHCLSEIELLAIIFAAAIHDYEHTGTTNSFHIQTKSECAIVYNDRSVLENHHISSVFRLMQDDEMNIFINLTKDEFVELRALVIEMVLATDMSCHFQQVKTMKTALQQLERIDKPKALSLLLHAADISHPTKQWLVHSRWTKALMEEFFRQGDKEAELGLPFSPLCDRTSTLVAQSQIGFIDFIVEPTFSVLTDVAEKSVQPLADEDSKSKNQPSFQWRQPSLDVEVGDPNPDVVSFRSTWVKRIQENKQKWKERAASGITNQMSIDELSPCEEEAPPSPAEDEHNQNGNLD
How it was run: as §1

PDE1A = target: T3, PDE1A (Homo sapiens, UniProt P54750); assay: Phosphodiesterase enzyme screening assay, PDE1A
T3 construct: purchased Reaction Biology Corporation, Malvern, Pa
T3 sequence (P54750 whole entry): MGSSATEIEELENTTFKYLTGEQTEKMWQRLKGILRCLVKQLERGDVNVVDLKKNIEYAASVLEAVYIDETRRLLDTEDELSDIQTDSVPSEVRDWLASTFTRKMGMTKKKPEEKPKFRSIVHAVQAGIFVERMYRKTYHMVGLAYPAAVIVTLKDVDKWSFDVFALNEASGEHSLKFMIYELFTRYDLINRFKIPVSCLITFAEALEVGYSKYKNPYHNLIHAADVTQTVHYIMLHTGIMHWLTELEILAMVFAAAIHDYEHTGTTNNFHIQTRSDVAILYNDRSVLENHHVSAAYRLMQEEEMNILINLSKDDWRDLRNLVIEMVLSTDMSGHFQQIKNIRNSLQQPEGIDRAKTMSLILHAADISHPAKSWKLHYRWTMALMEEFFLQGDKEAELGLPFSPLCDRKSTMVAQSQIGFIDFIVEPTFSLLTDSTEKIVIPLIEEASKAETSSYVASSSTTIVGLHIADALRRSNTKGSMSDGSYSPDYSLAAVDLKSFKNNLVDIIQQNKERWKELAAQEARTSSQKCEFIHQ
How it was run: as §1

[1] = Table 1, 10 concentrations, 4.0 μM cGMP substrate, 1 hour at R.T., read-out: Band (PDE9A2 IC50)
[2] = Table 1, ratio of IC50 values, value greater than 1 indicates greater selectivity for PDE9A2
[3] = Table 2, 10 concentrations, 4.0 μM cGMP substrate, 1 hour at R.T., read-out: Band (PDE9A2 IC50)
[4] = Table 2, ratio of IC50 values, value greater than 1 indicates greater selectivity for PDE9A2
[5] = Table 3, 4.0 μM cGMP substrate, 1 hour at R.T., read-out: Band (PDE9A2 IC50)
[6] = ratio of IC50 values, PDE1B versus PDE9A2, value greater than 1 = greater selectivity for PDE9A2
[7] = ratio of IC50 values, PDE1A versus PDE9A2, value greater than 1 = greater selectivity for PDE9A2

T1 sequence (O76083 1-533 isoform O76083-2): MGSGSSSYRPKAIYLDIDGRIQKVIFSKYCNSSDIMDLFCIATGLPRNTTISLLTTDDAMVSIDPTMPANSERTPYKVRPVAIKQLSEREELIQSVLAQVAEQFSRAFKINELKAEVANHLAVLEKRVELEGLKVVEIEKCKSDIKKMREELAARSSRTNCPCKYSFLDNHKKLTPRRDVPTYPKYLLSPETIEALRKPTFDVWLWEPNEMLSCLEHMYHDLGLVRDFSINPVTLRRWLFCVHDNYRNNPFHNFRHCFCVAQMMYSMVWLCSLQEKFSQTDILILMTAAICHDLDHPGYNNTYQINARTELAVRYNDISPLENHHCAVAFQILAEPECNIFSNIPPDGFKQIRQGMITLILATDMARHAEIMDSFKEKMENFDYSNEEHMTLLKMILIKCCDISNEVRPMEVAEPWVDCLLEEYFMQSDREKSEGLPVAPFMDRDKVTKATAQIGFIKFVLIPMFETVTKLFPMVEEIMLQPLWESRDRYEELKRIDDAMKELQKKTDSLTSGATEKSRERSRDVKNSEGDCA

## CC1CN(C(=O)c2ccc3ccccc3n2)CC1c1nn2c(C3CCOCC3)ncc2c(=O)[nH]1 (single isomer, unassigned; (-)) [(−)-2-((3,4-trans)-4-methyl-1-(quinoline-2-carbonyl)pyrrolidin-3-yl)-7-(tetrahydro-2H-pyran-4-yl)imidazo[5,1-f][1,2,4]triazin-4(3H)-one]
PDE9A2; [1]
  IC50: < 1000 nM
PDE1B; [2]
  PDE1B selectivity (versus PDE9A2): 59
PDE1A; [2]
  PDE1A selectivity (versus PDE9A2): 25

## CC1CN(Cc2cccnn2)CC1c1nn2c(C3CCOCC3)ncc2c(=O)[nH]1 (single isomer, unassigned; (+)) [(+)-2-((3,4-trans)-4-methyl-1-(pyridazin-3-ylmethyl)pyrrolidin-3-yl)-7-(tetrahydro-2H-pyran-4-yl)imidazo[5,1-f][1,2,4]triazin-4(3H)-one]
PDE9A2; [1]
  IC50: < 1000 nM
PDE1B; [2]
  PDE1B selectivity (versus PDE9A2): 276
PDE1A; [2]
  PDE1A selectivity (versus PDE9A2): 182

## COc1ccc(F)c(CN2CC(C)C(c3nn4c(C5CCOCC5)ncc4c(=O)[nH]3)C2)c1 (single isomer, unassigned; (+)) [(+)-2-((3,4-trans)-1-(2-fluoro-5-methoxybenzyl)-4-methylpyrrolidin-3-yl)-7-(tetrahydro-2H-pyran-4-yl)imidazo[5,1-f][1,2,4]triazin-4(3H)-one]
PDE9A2; [1]
  IC50: < 1000 nM
PDE1B; [2]
  PDE1B selectivity (versus PDE9A2): 255
PDE1A; [2]
  PDE1A selectivity (versus PDE9A2): 340

## CC1CN(Cc2ccccc2C(F)(F)F)CC1c1nn2c(C3CCOCC3)ncc2c(=O)[nH]1 (single isomer, unassigned; (+)) [(+)-2-((3,4-trans)-4-methyl-1-(2-(trifluoromethyl)benzyl)pyrrolidin-3-yl)-7-(tetrahydro-2H-pyran-4-yl)imidazo[5,1-f][1,2,4]triazin-4(3H)-one]
PDE9A2; [1]
  IC50: < 1000 nM
PDE1B; [2]
  PDE1B selectivity (versus PDE9A2): 16
PDE1A; [2]
  PDE1A selectivity (versus PDE9A2): 73

## CC1CN(Cc2ncc(N3CCCC3)cn2)CC1c1nn2c(C3CCOCC3)ncc2c(=O)[nH]1 (single isomer, unassigned; (+)) [(+)-2-((3,4-trans)-4-methyl-1-((5-(pyrrolidin-1-yl)pyrimidin-2-yl)methyl)pyrrolidin-3-yl)-7-(tetrahydro-2H-pyran-4-yl)imidazo[5,1-f][1,2,4]triazin-4(3H)-one]
PDE9A2; [3]
  IC50: < 1000 nM
PDE1B; [4]
  PDE1B selectivity (versus PDE9A2): 496
PDE1A; [4]
  PDE1A selectivity (versus PDE9A2): 105

## Cc1ccc(F)cc1-c1ncc2c(=O)[nH]c(C3CN(Cc4cccnc4)CC3C)nn12 (single isomer, unassigned; (+)) [(+)-7-(5-fluoro-2-methylphenyl)-2-((3,4-trans)-4-methyl-1-(pyridin-3-ylmethyl)pyrrolidin-3-yl)imidazo[5,1-f][1,2,4]triazin-4(3H)-one]
PDE9A2; IC50 band, 4.0 μM cGMP substrate, 1 hour at R.T.
  IC50: < 1000 nM
PDE1B; ratio of IC50 values PDE1B vs PDE9A2, value greater than 1 indicates greater selectivity for PDE9A2
  PDE1B selectivity (versus PDE9A2): 505
PDE1A; ratio of IC50 values PDE1A vs PDE9A2, value greater than 1 indicates greater selectivity for PDE9A2
  PDE1A selectivity (versus PDE9A2): 770

## CC1CN(Cc2ccccc2)CC1c1nn2c(C3CCC(F)(F)CC3)ncc2c(=O)[nH]1 (single isomer, unassigned; (+)) [(+)-2-((3,4-trans)-1-benzyl-4-methylpyrrolidin-3-yl)-7-(4,4-difluorocyclohexyl)imidazo[5,1-f][1,2,4]triazin-4(3H)-one]
PDE9A2; [1]
  IC50: < 1000 nM
PDE1B; [2]
  PDE1B selectivity (versus PDE9A2): 496
PDE1A; [2]
  PDE1A selectivity (versus PDE9A2): 309

## C[C@@H]1CN(Cc2ncccn2)C[C@H]1c1nn2c(C3CCOCC3)ncc2c(=O)[nH]1 (relative stereo) [(+)-2-((3,4-trans)-4-, (+)-2-((3,4-trans)-4-methyl-1-(pyrimidin-2-ylmethyl)pyrrolidin-3-yl)-7-(tetrahydro-2H-pyran-4-yl)imidazo[5,1-f][1,2,4]triazin-4(3H)-one]
PDE9A2; [5]
  IC50: < 1000 nM
PDE1B; [6]
  PDE1B selectivity (versus PDE9A2): 456
PDE1A; [7]
  PDE1A selectivity (versus PDE9A2): 214

## Cc1cnc(CN2CC(C)C(c3nn4c(C5CCOCC5)ncc4c(=O)[nH]3)C2)nc1 (single isomer, unassigned; (+)) [(+)-2-((3,4-trans)-4-methyl-1-((5-methylpyrimidin-2-yl)methyl)pyrrolidin-3-yl)-7-(tetrahydro-2H-pyran-4-yl)imidazo[5,1-f][1,2,4]triazin-4(3H)-one]
PDE9A2; [3]
  IC50: < 1000 nM
PDE1B; [4]
  PDE1B selectivity (versus PDE9A2): 76
PDE1A; [4]
  PDE1A selectivity (versus PDE9A2): 42

## CC1CN(Cc2ccccc2)CC1c1nn2c(-c3ccccc3F)ncc2c(=O)[nH]1 (single isomer, unassigned; (+)) [(+)-2-((3,4-trans)-1-benzyl-4-methylpyrrolidin-3-yl)-7-(2-fluorophenyl)imidazo[5,1-f][1,2,4]triazin-4(3H)-one]
PDE9A2; 4.0 μM cGMP substrate, 1 hour at R.T., read-out: Band (PDE9A2 IC50)
  IC50: < 1000 nM
PDE1B; ratio of IC50 values PDE1B / PDE9A2, value greater than 1 indicates greater selectivity for PDE9A2
  PDE1B selectivity (versus PDE9A2): 83
PDE1A; ratio of IC50 values PDE1A / PDE9A2, value greater than 1 indicates greater selectivity for PDE9A2
  PDE1A selectivity (versus PDE9A2): 76

## CC1CN(C(=O)c2ccc(C#N)cc2)CC1c1nn2c(C3CCOCC3)ncc2c(=O)[nH]1 (single isomer, unassigned; (-)) [(−)-4-((3,4-trans)-3-methyl-4-(4-oxo-7-(tetrahydro-2H-pyran-4-yl)-3,4-dihydroimidazo[5,1-f][1,2,4]triazin-2-yl)pyrrolidine-1-carbonyl)benzonitrile]
PDE9A2; [1]
  IC50: < 1000 nM
PDE1B; [2]
  PDE1B selectivity (versus PDE9A2): 21
PDE1A; [2]
  PDE1A selectivity (versus PDE9A2): 14

## CC1CN(Cc2cccc(C(F)(F)F)n2)CC1c1nn2c(C3CCOCC3)ncc2c(=O)[nH]1 (single isomer, unassigned; (+)) [(+)-2-((3,4-trans)-4-methyl-1-((6-(trifluoromethyl)pyridin-2-yl)methyl)pyrrolidin-3-yl)-7-(tetrahydro-2H-pyran-4-yl)imidazo[5,1-f][1,2,4]triazin-4(3H)-one]
PDE9A2; [5]
  IC50: < 1000 nM
PDE1B; [6]
  PDE1B selectivity (versus PDE9A2): 389
PDE1A; [7]
  PDE1A selectivity (versus PDE9A2): 708

## COc1ccccc1CN1CC(C)C(c2nn3c(C4CCOCC4)ncc3c(=O)[nH]2)C1 (single isomer, unassigned; (+)) [(+)-2-((3,4-trans)-1-(2-methoxybenzyl)-4-methylpyrrolidin-3-yl)-7-(tetrahydro-2H-pyran-4-yl)imidazo[5,1-f][1,2,4]triazin-4(3H)-one]
PDE9A2; [1]
  IC50: < 1000 nM
PDE1B; [2]
  PDE1B selectivity (versus PDE9A2): 230
PDE1A; [2]
  PDE1A selectivity (versus PDE9A2): 337

## CC1CN(Cc2ccc(F)cc2)CC1c1nn2c(C3CCC(F)(F)CC3)ncc2c(=O)[nH]1 (single isomer, unassigned; (+)) [(+)-(4,4-difluorocyclohexyl)-2-((3,4-trans)-1-(4-fluorobenzyl)-4-methylpyrrolidin-3-yl)imidazo[5,1-f][1,2,4]triazin-4(3H)-one]
PDE9A2; [1]
  IC50: < 1000 nM
PDE1B; [2]
  PDE1B selectivity (versus PDE9A2): 2980
PDE1A; [2]
  PDE1A selectivity (versus PDE9A2): 1453

## CC1CN(c2ncccn2)CC1c1nn2c(C3CCOCC3)ncc2c(=O)[nH]1 (single isomer, unassigned; (+)) [(+)-2-((3,4-trans)-4-methyl-1-(pyrimidin-2-yl)pyrrolidin-3-yl)-7-(tetrahydro-2H-pyran-4-yl)imidazo[5,1-f][1,2,4]triazin-4(3H)-one]
PDE9A2; [1]
  IC50: < 1000 nM
PDE1B; [2]
  PDE1B selectivity (versus PDE9A2): 1
PDE1A; [2]
  PDE1A selectivity (versus PDE9A2): 1

## CC1CN(Cc2ccc(C#N)cc2)CC1c1nn2c(C3CCOCC3)ncc2c(=O)[nH]1 (single isomer, unassigned; (-)) [(−)-4-(((3,4-trans)-3-methyl-4-(4-oxo-7-(tetrahydro-2H-pyran-4-yl)-3,4-dihydroimidazo[5,1-f][1,2,4]triazin-2-yl)pyrrolidin-1-yl)methyl)benzonitrile]
PDE9A2; [1]
  IC50: < 1000 nM
PDE1B; [2]
  PDE1B selectivity (versus PDE9A2): 1445
PDE1A; [2]
  PDE1A selectivity (versus PDE9A2): 640

## CC1CN(Cc2cn3ccccc3n2)CC1c1nn2c(C3CCOCC3)ncc2c(=O)[nH]1 (single isomer, unassigned; (+)) [(+)-2-((3,4-trans)-1-(imidazo[1,2-a]pyridin-2-ylmethyl)-4-methylpyrrolidin-3-yl)-7-(tetrahydro-2H-pyran-4-yl)imidazo[5,1-f][1,2,4]triazin-4(3H)-one]
PDE9A2; [1]
  IC50: < 1000 nM
PDE1B; [2]
  PDE1B selectivity (versus PDE9A2): 734
PDE1A; [2]
  PDE1A selectivity (versus PDE9A2): 754

## CC1CN(Cc2cnn(C)c2)CC1c1nn2c(C3CCOCC3)ncc2c(=O)[nH]1 (single isomer, unassigned; (+)) [(+)-2-((3,4-trans)-4-methyl-1-((1-methyl-1H-pyrazol-4-yl)methyl)pyrrolidin-3-yl)-7-(tetrahydro-2H-pyran-4-yl)imidazo[5,1-f][1,2,4]triazin-4(3H)-one]
PDE9A2; [5]
  IC50: < 1000 nM
PDE1B; [6]
  PDE1B selectivity (versus PDE9A2): 434
PDE1A; [7]
  PDE1A selectivity (versus PDE9A2): 247

## Cc1ccncc1-c1ncc2c(=O)[nH]c(C3CN(Cc4ncccn4)CC3C)nn12 (single isomer, unassigned; (+)) [(+)-2-((3,4-trans)-4-methyl-1-(pyrimidin-2-ylmethyl)pyrrolidin-3-yl)-7-(4-methylpyridin-3-yl)imidazo[5,1-f][1,2,4]triazin-4(3H)-one]
PDE9A2; read-out: Band (PDE9A2 IC50)
  IC50: < 1000 nM
PDE1B; ratio of IC50 values, PDE1B versus PDE9A2, value greater than 1 indicates greater selectivity for PDE9A2
  PDE1B selectivity (versus PDE9A2): 127
PDE1A; ratio of IC50 values, PDE1A versus PDE9A2, value greater than 1 indicates greater selectivity for PDE9A2
  PDE1A selectivity (versus PDE9A2): 85
